We go through 52 molecules from patent publication EP1202975B1, “SUBSTITUTED POLYCYCLIC ARYL AND HETEROARYL PYRAZINONES USEFUL FOR SELECTIVE INHIBITION OF THE COAGULATION CASCADE” (Pharmacia Corporation, priority 1999, dated 2000).

What is called pIC50 is the IC50 on a negative log10 scale, so that one unit is a factor of ten.

pIC50: −log10 of the molar value. Read-outs that look alike come from different tables or passages of the source.

The target in assay [1] is T1, TF-VIIa (Homo sapiens, UniProt P08709).
T1 construct: 2nM recombinant human factor VIIa; purchased American Diagnostica, Greenwich CT; host or cells: soluble TF made in house in E. coli
Kind of assay: TF-VIIa Assay. Format: biochemical.

Assay [2] concerns the target Human factor Xa (Homo sapiens, UniProt P00742). The experiment in a line: Xa Assay. As to conditions: for pIC50: read-out: IC50 or % Inhibition Factor Xa (30 µM), cells given as a plain number (IC50); for IC50 or % Inhibition Factor Xa (30 µM): % inhibition at 30 µM.
The mark [3] stands for this setting: read-out: IC50 or % Inhibition TF-VIIa (30 µM); cells given as a plain number (IC50).
The mark [4] stands for this setting: cells given as a plain number (IC50); read-out: IC50 or % Inhibition TF-VIIa (30 µM).

Sequence of Human factor Xa (P00742 235-488 limits assumed): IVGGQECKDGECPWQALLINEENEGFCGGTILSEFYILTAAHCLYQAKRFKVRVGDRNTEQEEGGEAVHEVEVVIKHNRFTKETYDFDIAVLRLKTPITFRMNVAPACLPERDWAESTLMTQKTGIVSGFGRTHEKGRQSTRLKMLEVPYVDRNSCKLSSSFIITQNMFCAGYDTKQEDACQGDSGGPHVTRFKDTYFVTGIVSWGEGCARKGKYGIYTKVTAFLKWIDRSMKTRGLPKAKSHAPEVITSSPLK
Sequence of Human factor Xa (P00742 41-179 limits assumed): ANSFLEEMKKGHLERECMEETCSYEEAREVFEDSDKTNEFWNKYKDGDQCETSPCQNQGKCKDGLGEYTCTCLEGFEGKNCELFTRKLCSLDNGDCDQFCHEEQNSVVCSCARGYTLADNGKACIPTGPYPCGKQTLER
T1 sequence (P08709 213-466 limits assumed): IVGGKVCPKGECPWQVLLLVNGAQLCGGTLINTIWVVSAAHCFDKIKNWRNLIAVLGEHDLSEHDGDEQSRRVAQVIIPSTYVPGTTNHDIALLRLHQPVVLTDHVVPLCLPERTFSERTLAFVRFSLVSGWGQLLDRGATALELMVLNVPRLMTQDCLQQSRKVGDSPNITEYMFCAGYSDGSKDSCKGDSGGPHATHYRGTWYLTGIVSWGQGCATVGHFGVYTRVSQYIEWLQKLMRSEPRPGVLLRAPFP
T1 sequence (P08709 61-212 limits assumed): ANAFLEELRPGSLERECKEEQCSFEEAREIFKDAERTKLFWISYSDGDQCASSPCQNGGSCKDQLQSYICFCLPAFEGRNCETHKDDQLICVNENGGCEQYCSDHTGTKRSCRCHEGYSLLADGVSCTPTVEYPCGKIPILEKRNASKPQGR
T1 sequence (P13726 33-251 partner limits assumed): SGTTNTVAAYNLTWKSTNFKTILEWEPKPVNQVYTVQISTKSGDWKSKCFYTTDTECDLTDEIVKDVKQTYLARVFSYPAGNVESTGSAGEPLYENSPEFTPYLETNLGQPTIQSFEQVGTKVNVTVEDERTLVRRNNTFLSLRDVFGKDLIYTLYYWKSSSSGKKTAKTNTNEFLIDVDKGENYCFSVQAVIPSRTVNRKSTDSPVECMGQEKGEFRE

As for `N=C(N)c1ccc(CNC(=O)Cn2c(-c3ccccc3)c(Cl)nc(NCc3cccc(Cl)c3)c2=O)cc1` [1507-38], the pIC50 in assay [1] (setting [3]) is 4.80; in assay [2], less than 4.52.
Turning to `N=C(N)c1ccc(CNC(=O)Cn2c(-c3ccccc3)c(Cl)nc(NCc3cccc(F)c3)c2=O)cc1` [1507-42], the pIC50 is 4.94 in assay [1] (setting [3]) and less than 4.52 in assay [2].
The like results for `Cc1ccc(CCNc2nc(Cl)c(-c3ccccc3)n(CC(=O)NCc3ccc(C(=N)N)cc3)c2=O)cc1` [1507-45] were, in that order, 5.14 and less than 4.52.
With `CCCCNc1nc(Cl)c(-c2ccccc2)n(CC(=O)NCc2ccc(C(=N)N)cc2)c1=O` [1512-14], the pIC50 in assay [1] (setting [4]) is 5.49. Besides, the “IC50 or % Inhibition Factor Xa (30 µM)” value in assay [2] came out at 7%.
For `N=C(N)c1ccc(CNC(=O)Cn2c(-c3ccccc3)c(Cl)nc(NC3CCCCCC3)c2=O)cc1` [1512-16], the pIC50 in assay [1] (setting [4]) is 5.19. The “IC50 or % Inhibition Factor Xa (30 µM)” value in assay [2] was 10%.
In the case of `N=C(N)c1ccc(CNC(=O)Cn2c(-c3ccccc3)c(Cl)nc(NC3CCS(=O)(=O)C3)c2=O)cc1` (centres unmarked) [1512-19], in assay [1] (setting [4]), the pIC50 was 4.84. For the same molecule, the “IC50 or % Inhibition Factor Xa (30 µM)” value in assay [2] is on record as 3%.
For the molecule `N=C(N)c1ccc(CNC(=O)Cn2c(-c3cccc(C(F)(F)F)c3)c(Cl)nc(NCc3ccccc3)c2=O)cc1` [1515-01], the pIC50 in assay [1] (setting [3]) is 5.15; in assay [2], less than 4.52.
`COc1ccccc1-c1c(Cl)nc(NCc2ccccc2)c(=O)n1CC(=O)NCc1ccc(C(=N)N)cc1` [1515-02]: the values for the pIC50 in assay [1] (setting [3]) and in assay [2] were 5.42 and less than 4.52, respectively.
As for `N=C(N)c1ccc(CNC(=O)Cn2c(-c3ccccc3Cl)c(Cl)nc(NCc3ccccc3)c2=O)cc1` [1515-04], the results for the pIC50 in assay [1] (setting [3]) and in assay [2] were 5.28 and less than 4.52, respectively.
Consider `COc1cccc(-c2c(Cl)nc(NCc3ccccc3)c(=O)n2CC(=O)NCc2ccc(C(=N)N)cc2)c1` [1515-05], for which the values for the pIC50 in assay [1] (setting [3]) and in assay [2] were 5.40 and less than 4.52, respectively.
With `N=C(N)c1ccc(CNC(=O)Cn2c(-c3cccs3)c(Cl)nc(NCc3ccccc3)c2=O)cc1` [1515-06], the pIC50 in assay [1] (setting [3]) is 5.77; in assay [2] it was less than 4.52.
Regarding `N=C(N)c1ccc(CNC(=O)Cn2c(-c3ccc(F)cc3)c(Cl)nc(NCc3ccccc3)c2=O)cc1` [1515-07], the values for the pIC50 in assay [1] (setting [3]) and in assay [2] were 4.85 and less than 4.52, respectively.
For the molecule `N=C(N)c1ccc(CNC(=O)Cn2c(-c3cccc(F)c3)c(Cl)nc(NCc3ccccc3)c2=O)cc1` [1515-09], the pIC50 in assay [1] (setting [3]) is 5.39; in assay [2] it was less than 4.52.
For the molecule `N=C(N)c1ccc(CNC(=O)Cn2c(-c3cccc(Br)c3)c(Cl)nc(NCc3ccccc3)c2=O)cc1` [1515-10], the pIC50 in assay [1] (setting [3]) was 5.24; in assay [2], less than 4.52.
`N=C(N)c1ccc(CNC(=O)Cn2c(-c3ccccc3F)c(Cl)nc(NCc3ccccc3)c2=O)cc1` [1515-11]: the results for the pIC50 in assay [1] (setting [3]) and in assay [2] were 5.37 and less than 4.52, respectively.
In the case of `N=C(N)c1ccc(CNC(=O)Cn2c(-c3ccccc3C(F)(F)F)c(Cl)nc(NCc3ccccc3)c2=O)cc1` [1515-12], the pIC50 in assay [1] (setting [3]) is 5.20; in assay [2], less than 4.52.
For the molecule `COc1ccccc1-c1c(Cl)nc(NC2CCC2)c(=O)n1CC(=O)NCc1ccc(C(=N)N)cc1` [1515-14], the figures for the pIC50 in assay [1] (setting [3]) and in assay [2] were 5.54 and less than 4.52, respectively.
For `N=C(N)c1ccc(CNC(=O)Cn2c(-c3ccccc3Cl)c(Cl)nc(NC3CCC3)c2=O)cc1` [1515-16], in that order: 5.06 and less than 4.52.
On to `COc1cccc(-c2c(Cl)nc(NC3CCC3)c(=O)n2CC(=O)NCc2ccc(C(=N)N)cc2)c1` [1515-17], for which the pIC50 in assay [1] (setting [3]) is 5.36; in assay [2] it was less than 4.52.
The like results for `N=C(N)c1ccc(CNC(=O)Cn2c(-c3cccs3)c(Cl)nc(NC3CCC3)c2=O)cc1` [1515-18] were, in that order, 6.22 and less than 4.52.
For `N=C(N)c1ccc(CNC(=O)Cn2c(-c3ccc(F)cc3)c(Cl)nc(NC3CCC3)c2=O)cc1` [1515-19], the pIC50 in assay [1] (setting [3]) was 4.62; in assay [2] it was less than 4.52.
On to `N=C(N)c1ccc(CNC(=O)Cn2c(-c3ccc(C(F)(F)F)cc3)c(Cl)nc(NC3CCC3)c2=O)cc1` [1515-20], for which the “IC50 or % Inhibition TF-VIIa (30 µM)” value in assay [1] was 32%. Besides, the pIC50 in assay [2] is less than 4.52.
`N=C(N)c1ccc(CNC(=O)Cn2c(-c3cccc(Br)c3)c(Cl)nc(NC3CCC3)c2=O)cc1` [1515-22]: the pIC50 in assay [1] (setting [4]) was 5.38; in assay [2], less than 4.52.
With `N=C(N)c1ccc(CNC(=O)Cn2c(-c3ccccc3F)c(Cl)nc(NC3CCC3)c2=O)cc1` [1515-23], the results for the pIC50 in assay [1] (setting [3]) and in assay [2] were 5.21 and less than 4.52, respectively.
For `N=C(N)c1ccc(CNC(=O)Cn2c(-c3ccccc3C(F)(F)F)c(Cl)nc(NC3CCC3)c2=O)cc1` [1515-24], in that order: 5.80 and less than 4.52.
As for `N=C(N)c1ccc(CNC(=O)Cn2c(-c3cccc(C(F)(F)F)c3)c(Cl)nc(NCCc3ccccc3)c2=O)cc1` [1515-25], the pIC50 in assay [1] (setting [4]) is 5.54; in assay [2], less than 4.52.
Turning to `COc1ccccc1-c1c(Cl)nc(NCCc2ccccc2)c(=O)n1CC(=O)NCc1ccc(C(=N)N)cc1` [1515-26], the pIC50 in assay [1] (setting [4]) is 5.80; in assay [2] it was less than 4.52.
Turning to `N=C(N)c1ccc(CNC(=O)Cn2c(-c3sccc3Br)c(Cl)nc(NCCc3ccccc3)c2=O)cc1` [1515-27], the pIC50 is 5.96 in assay [1] (setting [3]) and less than 4.52 in assay [2].
On to `N=C(N)c1ccc(CNC(=O)Cn2c(-c3cccs3)c(Cl)nc(NCCc3ccccc3)c2=O)cc1` [1515-30], for which the pIC50 in assay [1] (setting [3]) is 5.92; in assay [2], less than 4.52.
`N=C(N)c1ccc(CNC(=O)Cn2c(-c3cccc(F)c3)c(Cl)nc(NCCc3ccccc3)c2=O)cc1` [1515-33]: the pIC50 in assay [1] (setting [4]) is 5.64; in assay [2], less than 4.52.
`N=C(N)c1ccc(CNC(=O)Cn2c(-c3cccc(Br)c3)c(Cl)nc(NCCc3ccccc3)c2=O)cc1` [1515-34]: the pIC50 is 5.36 in assay [1] (setting [3]) and less than 4.52 in assay [2].
In the case of `N=C(N)c1ccc(CNC(=O)Cn2c(-c3ccccc3F)c(Cl)nc(NCCc3ccccc3)c2=O)cc1` [1515-35], the pIC50 in assay [1] (setting [4]) is 5.74; in assay [2] it was less than 4.52.
Turning to `CCCCNc1nc(Cl)c(-c2ccccc2)n(CC(=O)NCc2ccc(C(=N)N)cc2)c1=O` [1517-35], the “IC50 or % Inhibition TF-VIIa (30 µM)” value in assay [1] (% inhibition at 30 µM) stood at 33%. In addition, in assay [2], the “IC50 or % Inhibition Factor Xa (30 µM)” value was determined as 0%.
Regarding `CC(C)CCNc1nc(Cl)c(-c2ccccc2)n(CC(=O)NCc2ccc(C(=N)N)cc2)c1=O` [1517-40], the pIC50 in assay [1] (setting [4]) was 5.92. In addition, the “IC50 or % Inhibition Factor Xa (30 µM)” value in assay [2] is given as 0%.
For `CC(C)(C)CCNc1nc(Cl)c(-c2ccccc2)n(CC(=O)NCc2ccc(C(=N)N)cc2)c1=O` [1517-41], in that order: 5.66 and 0%.
`N=C(N)c1ccc(CNC(=O)Cn2c(-c3ccccc3)c(Cl)nc(NCCN3CCCC3)c2=O)cc1` [1522-08]: the pIC50 is 6.57 in assay [1] (setting [3]) and less than 4.52 in assay [2].
Take `CC(C)CCNc1nc(Cl)c(-c2ccccc2)n(CC(=O)NCc2ccc(C(=N)N)cc2)c1=O` [1522-14]: the pIC50 was 6.08 in assay [1] (setting [4]) and less than 4.52 in assay [2].
`CC(C)C(C)Nc1nc(Cl)c(-c2ccccc2)n(CC(=O)NCc2ccc(C(=N)N)cc2)c1=O` (centres unmarked) [1522-15]: the results for the pIC50 in assay [1] (setting [3]) and in assay [2] were 6.27 and less than 4.52, respectively.
Take `CC(C)CC(C)Nc1nc(Cl)c(-c2ccccc2)n(CC(=O)NCc2ccc(C(=N)N)cc2)c1=O` (centres unmarked) [1522-17]: the pIC50 in assay [1] (setting [3]) was 6.21; in assay [2], less than 4.52.
In the case of `CC(C)(C)CCNc1nc(Cl)c(-c2ccccc2)n(CC(=O)NCc2ccc(C(=N)N)cc2)c1=O` [1522-18], the pIC50 is 5.77 in assay [1] (setting [4]) and less than 4.52 in assay [2].
As to `CC(CNc1nc(Cl)c(-c2ccccc2)n(CC(=O)NCc2ccc(C(=N)N)cc2)c1=O)N(C)C` (centres unmarked) [1522-23], the pIC50 in assay [1] (setting [3]) is 5.66; in assay [2], less than 4.52.
For `CC(C)CNc1nc(Cl)c(-c2ccccc2)n(CC(=O)NCc2ccc(C(=N)N)cc2)c1=O` [1522-34], the pIC50 in assay [1] (setting [4]) is 6.30; in assay [2], less than 4.52.
With `CCN1CC(Nc2nc(Cl)c(-c3ccccc3)n(CC(=O)NCc3ccc(C(=N)N)cc3)c2=O)CN1CC` [1522-35], the figures for the pIC50 in assay [1] (setting [3]) and in assay [2] were 5.40 and less than 4.52, respectively.
For `N=C(N)c1ccc(CNC(=O)Cn2c(-c3ccccc3)c(Cl)nc(NC3CCCCCC3)c2=O)cc1` [1522-36], the pIC50 in assay [1] (setting [4]) was 6.00; in assay [2] it was less than 4.52.
Consider `N=C(N)c1ccc(CNC(=O)Cn2c(-c3ccccc3)c(Cl)nc(NCCNc3ncc(C(F)(F)F)cc3Cl)c2=O)cc1` [1522-37], for which the pIC50 is 5.70 in assay [1] (setting [3]) and less than 4.52 in assay [2].
In the case of `N=C(N)c1ccc(CNC(=O)Cn2c(-c3ccccc3)c(Cl)nc(NCCNc3ncccc3C(F)(F)F)c2=O)cc1` [1522-38], the pIC50 in assay [1] (setting [3]) is 6.00; in assay [2], less than 4.52.
In the case of `N=C(N)c1ccc(CNC(=O)Cn2c(-c3ccccc3)c(Cl)nc(NCCCCN3CCCC3)c2=O)cc1` [1522-42], the pIC50 in assay [1] (setting [3]) is 6.00; in assay [2] it was less than 4.52.
`C[C@H](Nc1nc(Cl)c(-c2ccccc2)n(CC(=O)NCc2ccc(C(=N)N)cc2)c1=O)C1CCCCC1` [1522-43]: the pIC50 in assay [1] (setting [3]) was 6.10; in assay [2] it was less than 4.52.
Turning to `N=C(N)c1ccc(CNC(=O)Cn2c(-c3ccccc3)c(Cl)nc(NC3CC4CCC3C4)c2=O)cc1` (centres unmarked) [1522-44], the pIC50 is 6.10 in assay [1] (setting [4]) and less than 4.52 in assay [2].
Consider `N=C(N)c1ccc(CNC(=O)Cn2c(-c3ccccc3)c(Cl)nc(NC3CCS(=O)(=O)C3)c2=O)cc1` (centres unmarked) [1522-46], for which the negative logarithm of the IC50 (pIC50) in assay [1] (setting [4]) is 6.00; in assay [2], less than 4.52.
As to `N=C(N)c1ccc(CNC(=O)Cn2c(-c3cccc(N)c3)c(Cl)nc(NC3CC3)c2=O)cc1` [1526-01], the values for the pIC50 in assay [1] (setting [3]) and in assay [2] were 7.70 and less than 4.52, respectively.
With `N=C(N)c1ccc(CNC(=O)Cn2c(-c3cccc(N)c3)c(Cl)nc(NCC(F)(F)F)c2=O)cc1` [1526-04], the pIC50 is 7.52 in assay [1] (setting [3]) and less than 4.52 in assay [2].
